Data reported in ChEMBL document CHEMBL1909046, “DrugMatrix in vitro pharmacology data”.

Tests used:
Adenosine receptor A2a = Adenosine receptor A2a (Homo sapiens, UniProt P29274); assay: DRUGMATRIX: Adenosine A2A radioligand binding (ligand: […]); assay type: cell membranes, HEK293, Membrane; details: Not Active = under 50% inhibition at 10 µM
[1] = target: Receptor tyrosine-protein kinase erbB-2 (Homo sapiens, UniProt P04626); assay: biochemical; assay type: cell-based, Insect cells; details: insect cells;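 note: inhibition of HER2 kinase enzyme activity, measured with Poly(Glu:Tyr) as the phosphorylation substrate; in other assays of this panel Not Active means under 50% inhibition at 10 µM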
Chain of Receptor tyrosine-protein kinase erbB-2 (P04626 whole entry): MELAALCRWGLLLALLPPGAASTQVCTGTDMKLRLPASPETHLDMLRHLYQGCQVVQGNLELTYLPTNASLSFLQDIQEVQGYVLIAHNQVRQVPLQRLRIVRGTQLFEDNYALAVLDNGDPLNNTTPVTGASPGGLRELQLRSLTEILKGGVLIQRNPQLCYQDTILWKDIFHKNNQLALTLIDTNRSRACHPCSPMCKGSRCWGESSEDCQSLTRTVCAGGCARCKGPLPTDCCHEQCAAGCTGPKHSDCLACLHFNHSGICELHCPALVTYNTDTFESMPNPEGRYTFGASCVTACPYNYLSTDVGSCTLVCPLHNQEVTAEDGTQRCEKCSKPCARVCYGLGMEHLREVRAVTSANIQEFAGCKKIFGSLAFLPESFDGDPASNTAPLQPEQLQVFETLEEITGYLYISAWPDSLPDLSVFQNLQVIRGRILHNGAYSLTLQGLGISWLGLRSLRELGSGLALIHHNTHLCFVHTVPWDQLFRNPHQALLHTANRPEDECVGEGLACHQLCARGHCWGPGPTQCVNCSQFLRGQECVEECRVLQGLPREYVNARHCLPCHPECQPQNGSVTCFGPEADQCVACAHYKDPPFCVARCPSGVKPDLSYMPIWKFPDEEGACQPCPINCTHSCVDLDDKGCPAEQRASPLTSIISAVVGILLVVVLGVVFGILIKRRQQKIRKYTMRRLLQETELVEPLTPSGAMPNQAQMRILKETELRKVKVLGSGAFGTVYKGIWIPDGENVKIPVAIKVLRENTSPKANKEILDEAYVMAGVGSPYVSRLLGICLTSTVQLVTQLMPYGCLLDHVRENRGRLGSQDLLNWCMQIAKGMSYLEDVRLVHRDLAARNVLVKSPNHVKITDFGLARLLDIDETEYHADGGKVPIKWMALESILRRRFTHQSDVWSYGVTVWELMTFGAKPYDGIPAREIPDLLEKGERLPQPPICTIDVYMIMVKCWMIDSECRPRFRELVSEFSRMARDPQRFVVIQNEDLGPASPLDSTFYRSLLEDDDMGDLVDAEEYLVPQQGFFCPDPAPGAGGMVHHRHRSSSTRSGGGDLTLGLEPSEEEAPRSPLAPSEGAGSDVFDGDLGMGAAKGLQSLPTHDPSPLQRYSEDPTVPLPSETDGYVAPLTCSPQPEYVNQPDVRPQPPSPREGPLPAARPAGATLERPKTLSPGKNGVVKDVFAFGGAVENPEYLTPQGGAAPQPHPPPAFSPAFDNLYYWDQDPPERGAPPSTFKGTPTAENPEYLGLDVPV

[2] = target: T1, Cysteinyl leukotriene receptor 1 (Homo sapiens, UniProt Q9Y271); assay type: cell membranes, CHO-K1, Membrane; details: cho-k1; note: in other assays of this panel Not Active means under 50% inhibition at 10 µM
T1 sequence (Q9Y271 whole entry): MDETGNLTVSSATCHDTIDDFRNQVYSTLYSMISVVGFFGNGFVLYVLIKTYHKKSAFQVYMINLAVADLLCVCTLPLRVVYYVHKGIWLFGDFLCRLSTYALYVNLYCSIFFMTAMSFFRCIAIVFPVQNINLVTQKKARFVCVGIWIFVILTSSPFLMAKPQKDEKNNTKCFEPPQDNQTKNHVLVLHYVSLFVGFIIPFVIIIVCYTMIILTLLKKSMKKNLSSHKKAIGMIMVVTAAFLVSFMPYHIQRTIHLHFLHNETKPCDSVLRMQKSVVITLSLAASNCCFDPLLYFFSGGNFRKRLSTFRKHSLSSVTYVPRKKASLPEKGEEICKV

[3] = target: T2, C-X-C chemokine receptor type 2 (Homo sapiens, UniProt P25025); assay type: cell membranes, Membrane; details: cho-k1; note: in other assays of this panel Not Active means under 50% inhibition at 10 µM
T2 sequence (P25025 whole entry): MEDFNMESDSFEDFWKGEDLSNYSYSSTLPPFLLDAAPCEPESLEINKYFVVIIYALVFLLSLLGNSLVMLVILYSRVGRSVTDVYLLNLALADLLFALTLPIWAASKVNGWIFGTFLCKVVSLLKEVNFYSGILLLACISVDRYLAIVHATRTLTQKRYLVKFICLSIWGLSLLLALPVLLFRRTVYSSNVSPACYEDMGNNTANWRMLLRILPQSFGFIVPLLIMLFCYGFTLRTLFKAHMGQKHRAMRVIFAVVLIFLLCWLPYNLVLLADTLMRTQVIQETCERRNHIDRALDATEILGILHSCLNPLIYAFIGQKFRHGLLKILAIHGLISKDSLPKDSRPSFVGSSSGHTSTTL

[4] = target: cGMP-specific 3',5'-cyclic phosphodiesterase (Homo sapiens, UniProt O76074); assay: DRUGMATRIX: Phosphodiesterase PDE5 enzyme inhibition (substrate: [3H]cGMP + cGMP); assay type: tissue-based; details: platelet; Not Active = under 50% inhibition at 10 µM
Carbonic anhydrase 2 = Carbonic anhydrase 2 (Homo sapiens, UniProt P00918); assay: DRUGMATRIX: Carbonic Anhydrase II enzyme inhibition (substrate: 4-Nitrophenyl acetate (4-NPA)); assay type: tissue-based, Erythrocyte; details: erythrocyte; Not Active = under 50% inhibition at 10 µM
[5] = target: Sigma non-opioid intracellular receptor 1 (Homo sapiens, UniProt Q99720); assay: DRUGMATRIX: Sigma1 radioligand binding (ligand: [3H] Haloperidol); assay type: cell membranes, Jurkat, Membrane; details: Not Active = under 50% inhibition at 10 µM
Chain of Sigma non-opioid intracellular receptor 1 (Q99720 whole entry): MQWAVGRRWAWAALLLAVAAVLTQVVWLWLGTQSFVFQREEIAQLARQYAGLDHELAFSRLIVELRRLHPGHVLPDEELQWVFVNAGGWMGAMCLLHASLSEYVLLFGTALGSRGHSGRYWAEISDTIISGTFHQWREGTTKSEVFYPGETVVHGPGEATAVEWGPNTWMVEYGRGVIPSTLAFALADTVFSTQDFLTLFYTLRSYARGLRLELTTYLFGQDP

Chain of Adenosine receptor A2a (P29274 whole entry): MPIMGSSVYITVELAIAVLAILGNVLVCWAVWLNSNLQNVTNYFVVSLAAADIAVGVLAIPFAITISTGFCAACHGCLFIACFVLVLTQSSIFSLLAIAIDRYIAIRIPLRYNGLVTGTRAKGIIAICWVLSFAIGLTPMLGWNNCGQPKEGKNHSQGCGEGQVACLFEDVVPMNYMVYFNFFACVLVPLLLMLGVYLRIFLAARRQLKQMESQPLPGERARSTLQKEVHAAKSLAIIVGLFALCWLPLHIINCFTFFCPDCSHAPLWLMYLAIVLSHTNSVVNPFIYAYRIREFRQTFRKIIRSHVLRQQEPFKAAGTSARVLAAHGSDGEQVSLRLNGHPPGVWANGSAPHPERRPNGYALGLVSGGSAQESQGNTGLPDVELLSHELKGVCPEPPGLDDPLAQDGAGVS

## CC(=O)Nc1cccc(O)c1 [METACETAMOL]
Adenosine receptor A2a; hek293
  IC50: Not Active
[1]
  IC50: Not Active
[2]
  IC50: Not Active
[3]
  IC50: Not Active
[4]
  IC50: Not Active
Carbonic anhydrase 2
  IC50: Not Active
[5]; jurkat
  IC50: Not Active

## Cc1ncc([N+](=O)[O-])n1CCO [METRONIDAZOLE]
Adenosine receptor A2a; hek293
  IC50: Not Active
[1]
  IC50: Not Active
[2]
  IC50: Not Active
[3]
  IC50: Not Active
[4]
  IC50: Not Active
Carbonic anhydrase 2
  IC50: Not Active
[5]; jurkat
  IC50: Not Active

## CC(C)(C(=O)c1cccnc1)c1cccnc1 [METYRAPONE]
Adenosine receptor A2a; hek293
  IC50: Not Active
[1]
  IC50: Not Active
[2]
  IC50: Not Active
[3]
  IC50: Not Active
[4]
  IC50: Not Active
Carbonic anhydrase 2
  IC50: Not Active
[5]; jurkat
  IC50: Not Active

## Oc1ccc(OCc2ccccc2)cc1 [MONOBENZONE]
Adenosine receptor A2a; hek293
  IC50: Not Active
[1]
  IC50: Not Active
[2]
  IC50: Not Active
[3]
  IC50: Not Active
[4]
  IC50: Not Active
Carbonic anhydrase 2
  IC50: Not Active
[5]; jurkat
  IC50: Not Active

## CC(C)(Oc1ccc(C2CCCc3ccccc32)cc1)C(=O)O (configuration not stated) [NAFENOPIN]
Adenosine receptor A2a; hek293
  IC50: Not Active
[1]
  IC50: Not Active
[2]
  IC50: Not Active
[3]
  IC50: Not Active
[4]
  IC50: Not Active
Carbonic anhydrase 2
  IC50: Not Active
[5]; jurkat
  IC50: Not Active

## CC(C)[C@H]1CC[C@H](C(=O)N[C@H](Cc2ccccc2)C(=O)O)CC1 [NATEGLINIDE]
Adenosine receptor A2a; hek293
  IC50: Not Active
[1]
  IC50: Not Active
[2]
  IC50: Not Active
[3]
  IC50: Not Active
[4]
  IC50: Not Active
Carbonic anhydrase 2
  IC50: Not Active
[5]; jurkat
  IC50: Not Active

## CCN[C@@H]1C[C@H](N)[C@@H](O[C@H]2OC(CN)=CC[C@H]2N)[C@H](O)[C@H]1O[C@H]1OC[C@](C)(O)[C@H](NC)[C@H]1O [NETILMICIN]
Adenosine receptor A2a; hek293
  IC50: Not Active
[1]
  IC50: Not Active
[2]
  IC50: Not Active
[3]
  IC50: Not Active
[4]
  IC50: Not Active
Carbonic anhydrase 2
  IC50: Not Active
[5]; jurkat
  IC50: Not Active

## COC(=O)C1=C(C)NC(C)=C(C(=O)OCC(C)C)C1c1ccccc1[N+](=O)[O-] (configuration not stated) [NISOLDIPINE]
Adenosine receptor A2a; read-out: IC50
  IC50: 4.06 µM
Adenosine receptor A2a; read-out: Ki
  Ki: 2280 nM
[1]
  IC50: Not Active
[2]
  IC50: Not Active
[3]
  IC50: Not Active
[4]
  IC50: Not Active
Carbonic anhydrase 2
  IC50: Not Active
[5]; jurkat
  IC50: Not Active

## CCOC(=O)C1=C(C)NC(C)=C(C(=O)OC)C1c1cccc([N+](=O)[O-])c1 (configuration not stated) [NITRENDIPINE]
Adenosine receptor A2a; hek293
  IC50: Not Active
[1]
  IC50: Not Active
[2]
  IC50: Not Active
[3]
  IC50: Not Active
[4]
  IC50: Not Active
Carbonic anhydrase 2
  IC50: Not Active
[5]; jurkat
  IC50: Not Active

## C#C[C@]1(OC(C)=O)CC[C@H]2[C@@H]3CCC4=CC(=O)CC[C@@H]4[C@H]3CC[C@@]21C [NORETHINDRONE ACETATE]
Adenosine receptor A2a; hek293
  IC50: Not Active
[1]
  IC50: Not Active
[2]
  IC50: Not Active
[3]
  IC50: Not Active
[4]
  IC50: Not Active
Carbonic anhydrase 2
  IC50: Not Active
[5]; jurkat
  IC50: Not Active

## COc1ccc2[nH]c([S+]([O-])Cc3ncc(C)c(OC)c3C)nc2c1 (configuration not stated) [OMEPRAZOLE]
Adenosine receptor A2a; hek293
  IC50: Not Active
[1]
  IC50: Not Active
[2]
  IC50: Not Active
[3]
  IC50: Not Active
[4]
  IC50: Not Active
Carbonic anhydrase 2
  IC50: Not Active
[5]; jurkat
  IC50: Not Active

## Cc1nccn1CC1CCc2c(c3ccccc3n2C)C1=O (configuration not stated) [ONDANSETRON]
Adenosine receptor A2a; hek293
  IC50: Not Active
[1]
  IC50: Not Active
[2]
  IC50: Not Active
[3]
  IC50: Not Active
[4]
  IC50: Not Active
Carbonic anhydrase 2
  IC50: Not Active
[5]; jurkat
  IC50: Not Active

## CCn1cc(C(=O)O)c(=O)c2cc(F)c(N3CCN(C)CC3)cc21 [PEFLOXACIN]
Adenosine receptor A2a; hek293
  IC50: Not Active
[1]
  IC50: Not Active
[2]
  IC50: Not Active
[3]
  IC50: Not Active
[4]
  IC50: Not Active
Carbonic anhydrase 2
  IC50: Not Active
[5]; jurkat
  IC50: Not Active

## CCCCOc1ccc(OCCCN2CCOCC2)cc1 [PRAMOXINE]
Adenosine receptor A2a; hek293
  IC50: Not Active
[1]
  IC50: Not Active
[2]
  IC50: Not Active
[3]
  IC50: Not Active
[4]
  IC50: Not Active
Carbonic anhydrase 2
  IC50: Not Active
[5]; read-out: IC50
  IC50: 121 nM
[5]; read-out: Ki
  Ki: 51 nM

## CCN(CC)CCOC(=O)c1ccc(N)cc1 [PROCAINE]
Adenosine receptor A2a; hek293
  IC50: Not Active
[1]
  IC50: Not Active
[2]
  IC50: Not Active
[3]
  IC50: Not Active
[4]
  IC50: Not Active
Carbonic anhydrase 2
  IC50: Not Active
[5]; jurkat
  IC50: Not Active
